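48-hour exposure; five concentrations; linearly interpolated endpoints. GI50 marks 50% less growth.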 Calls of active or inactive are those of the source. Cut-off read from the data, not from the text of the source: active = GI50 up to about 1.1 µM and inactive = higher.
Key:
Assay in all cases: NCI-60 cell line screen, 48 h
SF-539 = system: SF-539
SK-MEL-28 = system: SK-MEL-28
OVCAR-3 = system: OVCAR-3
HCT-15 = system: HCT-15
KM12 = system: KM12
SF-268 = system: SF-268
EKVX = system: EKVX
SN12C = system: SN12C
OVCAR-5 = system: OVCAR-5
HCT-116 = system: HCT-116
HT-29 = system: HT-29
SK-OV-3 = system: SK-OV-3
UACC-62 = system: UACC-62
SW-620 = system: SW-620
UO-31 = system: UO-31
MOLT-4 = system: MOLT-4
M14 = system: M14
SK-MEL-2 = system: SK-MEL-2
U-251 = system: U-251
K562 = system: K562

Measured: GI50

NC(=O)c1cc([N+](=O)[O-])cc([N+](=O)[O-])c1 [NITROMIDE]
inactive: SF-539 > 100 µM | SK-MEL-28 > 100 µM | OVCAR-3 > 100 µM | KM12 > 100 µM | SF-268 > 100 µM | EKVX > 100 µM | SN12C > 100 µM | OVCAR-5 > 100 µM | HCT-116 > 100 µM | HT-29 > 100 µM | SK-OV-3 > 100 µM | UACC-62 96.8 µM | SW-620 > 100 µM | UO-31 > 100 µM | MOLT-4 > 100 µM | M14 > 100 µM | SK-MEL-2 > 100 µM | U-251 > 100 µM | K562 > 100 µM
> 100 µM: HCT-15
